Measurements as given in patent publication US6514956B1, “Steroids, their preparation, pharmaceutical compositions thereof and uses of the compounds” (Shanghai Zhongxi Pharmaceutical Co., Ltd., priority 1999, dated 2003).

Experiments:
[1] = reported in European Journal of Cancer 1999; cited from earlier work
[2] = system: Human mammary cancer cells MCF-7; test: MTT test of killing tumor cells, MCF-7; assay type: cell-based; settings: 4-6 days incubation
Procedure: (§1) Human mammary cancer cells (MCF-7, T47D, commercially available) were prepared as 1×10^4/ml cell suspension in RPMI 1640 medium containing 10% calf serum and used to inoculate a 96-well plate at 100 μl/well. The plate was incubated for 24 hours in an incubator in 5% CO2 at 37° C. Two experimental groups each receiving compound of formula (VI) or Mifepristone (commercially available) (triplicate well/group each receiving 100 μl RPMI 1640 medium containing various concentrations of drug) and a control group (each well receiving RPMI medium containing equal volume of solvent) were incubated for 4-6 days in an incubator in 5% CO2 at 37° C. The cultural supernatant was discarded and 0.04% 100 μl MTT prepared with RPMI 1640 was added into each well. Incubation was carried out at 37° C. for 4 hours. The supernatant was discarded and 150 μl dimethyl sulfoxide was added into each well to dissolve Fomazan particles. After being shaked slightly, OD value was measured using a Model 550 Enzyme Labelling Equipment at a wavelength of 540 nm. The rate of inhibition of cells was graphed against the various concentrations of the drug to produce a dosage response curve from which 50% inhibiting concentration IC50 was derived.

[3] = system: Human mammary cancer cells T47D; test: MTT test of killing tumor cells, T47D; assay type: cell-based; settings: 4-6 days incubation
Procedure: as §1

[4] = system: MNU-induced rat mammary cancer; test: Inhibition of MNU-induced rat mammary cancer; assay type: in vivo, Sprague-Dawley rats; settings: 30 days
Procedure: Sprague-Dawley rats which are 5-7 weeks old and weighing 90-120 g were treated with an amount of carcinogenic chemical (MNU, commercially available) to induce rat mammary cancer and were divided into a group with cancer-induction alone, a group with mifepristone and two treatment groups with the compound of formula (VI). Each group except for the group with cancer-induction alone was endogastrically administrated with corresponding dose one time per day. After 30 days, the animals were sacrificed by decapitation. Indices such as body weight and tumor weight of each group of the animals were compared. The mean value of the groups was calculated and the rate of tumor growth inhibition derived. Rate of tumor inhibition %=(mean value of the group with cancer-induction alone−mean value of the treatment group)/mean value of the group with cancer-induction alone×100%

[5] = system: pregnant rats, gravidity d7-9; test: Effect in stopping early pregnancy in rats; assay type: in vivo, Sprague-Dawley rats; settings: for early pregnancy-stopping effect: rats of gravidity d7-9
Procedure: Both sexes of Sprague-Dawley rats were placed into a cage and were allowed to copulate. […] Pregnant rats were randomly divided into 11 groups of 10. The control group was administrated with 0.5% CMC-Na solution. 6 Groups were administered with the compound of formula (VI) at doses of 2.0, 1.6, 1.28, 1.02, 0.82 and 0.66 mg/kg respecticely. 4 Groups were administered with Mifepristone at doses of 3.5, 2.45, 1.72 and 1.2 mg/kg respectively. The groups were administered endogastrically once a day (dose 2 ml/kg) for 3 consecutive days starting from gradivity d7. Animals in which ecolporrhagia was not detected and no signs of embryo implantation were found on dissection examination were considered as not pregnant and were not counted. The animals were sacrificed and laparotomized on gradivity d14 and the numbers of living embryos, dead embryos, implantation sites and yellow bodies in the uterus were counted. The number of the pregnant animals were counted and compared with that of the control group. ED50 of the two test drugs and its credibility interval was calculated with Bliss's method.

[6] = system: pregnant rats, gravidity d1-4; test: Anti-implantation effect in rat; assay type: in vivo, Sprague-Dawley rats; settings: endogastric once a day for 4 days from gravidity d1, Bliss's method
Procedure: Both sexes of Sprague-Dawley rats were placed into a cage and were allowed to copulate. […] Pregnant rats were randomly divided into 10 groups of 10. The control group was administered with 0.5% CMC-Na solution. 5 Groups were administered with the compound of formula (VI) and 4 groups were administered with Mifepristone. The groups were administered endogastrically once a day for 4 consecutive days starting from gradivity d1. The groups of animals were laparotomized on gradivity d14 and their uterus examined. The number of pregnant animals was counted. ED50 of the two drugs was calculated with Bliss's method.

[7] = compared with mifepristone; reported in Human Reproduction 1994; cited from earlier work
[8] = target: T1, progesterone receptor in rabbit endometrium (Oryctolagus cuniculus, UniProt P06186); settings: cited from earlier work
T1 construct: progesterone receptor in rabbit endometrium; host or cells: rabbit endometrium (tissue)
T1 sequence (P06186 1-930): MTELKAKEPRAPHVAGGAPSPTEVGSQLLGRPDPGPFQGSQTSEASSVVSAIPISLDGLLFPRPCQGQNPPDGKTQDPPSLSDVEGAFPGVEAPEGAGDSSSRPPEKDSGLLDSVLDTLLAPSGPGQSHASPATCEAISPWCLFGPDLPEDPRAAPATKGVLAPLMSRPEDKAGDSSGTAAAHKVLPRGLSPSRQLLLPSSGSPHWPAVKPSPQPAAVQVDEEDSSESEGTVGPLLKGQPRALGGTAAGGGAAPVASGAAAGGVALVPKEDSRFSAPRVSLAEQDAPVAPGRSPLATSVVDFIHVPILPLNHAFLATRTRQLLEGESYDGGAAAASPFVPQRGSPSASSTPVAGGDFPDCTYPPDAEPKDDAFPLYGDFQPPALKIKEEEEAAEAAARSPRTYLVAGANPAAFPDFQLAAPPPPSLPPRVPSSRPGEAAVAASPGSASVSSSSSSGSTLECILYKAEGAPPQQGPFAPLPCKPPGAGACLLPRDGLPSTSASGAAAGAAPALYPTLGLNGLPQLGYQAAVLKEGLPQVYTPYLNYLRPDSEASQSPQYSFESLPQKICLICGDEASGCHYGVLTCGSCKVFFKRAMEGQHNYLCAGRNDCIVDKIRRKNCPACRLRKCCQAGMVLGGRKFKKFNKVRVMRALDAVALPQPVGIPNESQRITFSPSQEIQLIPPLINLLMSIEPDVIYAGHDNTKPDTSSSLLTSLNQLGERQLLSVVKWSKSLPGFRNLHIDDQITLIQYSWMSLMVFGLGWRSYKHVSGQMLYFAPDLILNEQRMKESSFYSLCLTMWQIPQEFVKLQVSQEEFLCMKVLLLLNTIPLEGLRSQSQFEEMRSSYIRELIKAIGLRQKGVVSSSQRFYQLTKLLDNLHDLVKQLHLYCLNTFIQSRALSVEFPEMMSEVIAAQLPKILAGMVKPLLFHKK

CN(C)c1ccc([C@H]2C[C@]3(C)[C@@H](CC[C@]3(O)CCCO)[C@@H]3CCC4=CC(=O)CCC4=C32)cc1 [Onapristone, 11β-[4-(N,N-dimethylamino)phenyl]-17α-hydroxy-17β-(3-hydroxypropyl)-13α-4,9-estradiene-3-one]
toxicity to human liver [1]: had toxicity to human liver

CC#CC1(O)CCC2C3CCC4=CC(=O)CCC4=C3C(c3ccc(N(C)C4CCCCC4)cc3)CC21C (stereo not drawn) [compound of formula (VI), 11β-[4-(N-methyl-N-cyclohexylamino)phenyl]-17α-(1-propinyl)-17β-hydroxy-4,9-estradiene-3-one]
IC50 ([2]; MCF-7 cells): 5.5 ± 0.72 µM
IC50 [3]: 6.4 ± 3.15 µM
Inhibition (%) of tumor growth ([4]; 10 mg/kg endogastrically once per day): 50.4%
Inhibition (%) of tumor growth ([4]; 20 mg/kg endogastrically once per day): 89.3%
early pregnancy-stopping effect ([5]; 2 mg/kg/day): complete early pregnancy-stopping effect
ED50, early pregnancy-stopping effect ([5]; rats, endogastric once a day for 3 days from gravidity d7, Bliss's method, credibility interval in brackets): 1.1439 ± 0.1590 mg/kg
anti-implantation ED50 [6]: 2.3409 ± 0.6191 mg/kg

CN(C)c1ccc([C@H]2C[C@@]3(C)[C@@H](CC[C@@]3(O)/C=C\CO)[C@@H]3CCC4=CC(=O)CCC4=C32)cc1 [Lilopristone, 11β-[4-(N,N-dimethylamino)phenyl]-17α-[3-hydroxy-1(Z)-propenyl]-17β-hydroxy-4,9-estradiene-3-one]
clinical effect in stopping early pregnancy [7]: only equivalent to that of mifepristone

CC#C[C@]1(O)CC[C@H]2[C@@H]3CCC4=CC(=O)CCC4=C3[C@@H](c3ccc(N(C)C)cc3)C[C@@]21C [Mifepristone, 11β-[4-(N,N-dimethylamino)phenyl]-17α-(1-propinyl)-17β-hydroxy-4,9-estradiene-3-one]
IC50 ([2]; Homo sapiens, MCF7, MCF-7 cells): 10.8 ± 8.1 µM
IC50 ([3]; Homo sapiens): 11 ± 9.03 µM
Inhibition (%) of tumor growth ([4]; 40 mg/kg endogastrically once per day): 72.1%
early pregnancy-stopping effect ([5]; 3.5 mg/kg): complete early pregnancy-stopping effect
ED50 ([5]; Rattus norvegicus, 72 h, rats, endogastric once a day for 3 days from gravidity d7, Bliss's method, credibility interval in brackets): 2.12 ± 0.447 mg/kg
ED50 ([6]; Rattus norvegicus, 96 h): 6.69 ± 1.55 mg/kg
affinity with progesterone receptor compared with progesterone [8]: five-fold higher than that of progesterone
